From US20250326753A1, “DUAL CXCR4-BTK INHIBITORS” (X4 Pharmaceuticals, Inc., priority 2022, published 2025)
Read-outs that look alike come from different tables or passages of the source.

Key:
ERBB4 = target: T1, ERBB4 (Homo sapiens, UniProt Q15303); assay: PanQinase kinase panel: ERBB4; format: biochemical; conditions: read-out: INHIBITORY EFFECT @ 1 uM: ERBB4
T1 construct: purchased Reaction Biology Europe GmbH
Method: (§1) Screening procedures were performed in accordance with the company's on-line protocol [accessed on-line Mar.
(§2) For each kinase, the median value of the cpm of three wells was defined as “low control” (n=3). This value reflects unspecific binding of radioactivity to the plate in the absence of a protein kinase but in the presence of the substrate. Additionally, for each kinase the median value of the cpm of three other wells was taken as the “high control,” i.e. full activity in the absence of any inhibitor (n=3). The difference between high and low control of each enzyme was taken as 100% activity.
As part of the data evaluation the low control of each kinase was subtracted from the high control value as well as from their corresponding “compound values”.

CK1epsilon = target: T2, CK1epsilon (Homo sapiens, UniProt P49674); assay: PanQinase kinase panel: CK1epsilon; format: biochemical; conditions: read-out: INHIBITORY EFFECT @ 1 uM: CK1epsilon
T2 construct: purchased Reaction Biology Europe GmbH
T2 sequence (P49674 whole entry): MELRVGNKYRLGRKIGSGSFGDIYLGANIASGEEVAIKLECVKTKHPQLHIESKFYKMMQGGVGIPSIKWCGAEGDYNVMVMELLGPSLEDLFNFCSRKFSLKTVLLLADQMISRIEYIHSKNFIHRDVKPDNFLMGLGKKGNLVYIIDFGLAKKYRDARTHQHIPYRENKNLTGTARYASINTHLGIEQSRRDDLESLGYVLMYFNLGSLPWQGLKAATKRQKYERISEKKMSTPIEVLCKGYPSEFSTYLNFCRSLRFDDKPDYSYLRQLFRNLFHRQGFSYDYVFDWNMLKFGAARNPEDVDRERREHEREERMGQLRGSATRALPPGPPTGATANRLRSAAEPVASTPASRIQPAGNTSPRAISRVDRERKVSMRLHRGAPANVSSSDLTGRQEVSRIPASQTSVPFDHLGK
Method: as §1, §2
(§3) As part of the data evaluation the low control of each kinase was subtracted from the high control value as well as from their corresponding “compound values”. The residual activity (in %) for each compound well was calculated by using the following formula: Res. Activity (%)=100×[(signal of compound−low control)/(high control−low control)].

ITK = target: T3, ITK (Homo sapiens, UniProt Q08881); assay: PanQinase kinase panel: ITK; format: biochemical; conditions: read-out: INHIBITORY EFFECT @ 1 uM: ITK
T3 construct: purchased Reaction Biology Europe GmbH
T3 sequence (Q08881 1-620): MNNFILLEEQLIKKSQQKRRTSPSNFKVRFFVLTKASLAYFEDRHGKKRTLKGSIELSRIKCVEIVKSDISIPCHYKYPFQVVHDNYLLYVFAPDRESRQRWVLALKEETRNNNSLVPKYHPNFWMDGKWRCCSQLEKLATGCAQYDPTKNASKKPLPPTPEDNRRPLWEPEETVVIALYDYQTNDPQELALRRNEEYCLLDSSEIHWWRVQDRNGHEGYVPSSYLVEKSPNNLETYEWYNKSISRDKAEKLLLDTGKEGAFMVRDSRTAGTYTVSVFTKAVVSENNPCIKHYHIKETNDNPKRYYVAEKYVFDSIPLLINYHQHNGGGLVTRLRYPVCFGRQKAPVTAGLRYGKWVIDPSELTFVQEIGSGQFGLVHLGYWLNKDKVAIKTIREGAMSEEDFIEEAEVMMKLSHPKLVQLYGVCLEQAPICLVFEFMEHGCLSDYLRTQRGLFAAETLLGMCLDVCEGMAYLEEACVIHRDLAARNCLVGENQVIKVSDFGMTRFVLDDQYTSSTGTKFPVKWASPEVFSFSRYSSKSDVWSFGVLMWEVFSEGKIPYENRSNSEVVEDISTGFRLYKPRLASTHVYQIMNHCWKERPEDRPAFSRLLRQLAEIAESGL
Method: as §1, §2, §3

TIE2 = target: T4, TIE2 (Homo sapiens, UniProt Q02763); assay: PanQinase kinase panel: TIE2; format: biochemical; conditions: read-out: INHIBITORY EFFECT @ 1 uM: TIE2
T4 construct: purchased Reaction Biology Europe GmbH
T4 sequence (Q02763 23-1124): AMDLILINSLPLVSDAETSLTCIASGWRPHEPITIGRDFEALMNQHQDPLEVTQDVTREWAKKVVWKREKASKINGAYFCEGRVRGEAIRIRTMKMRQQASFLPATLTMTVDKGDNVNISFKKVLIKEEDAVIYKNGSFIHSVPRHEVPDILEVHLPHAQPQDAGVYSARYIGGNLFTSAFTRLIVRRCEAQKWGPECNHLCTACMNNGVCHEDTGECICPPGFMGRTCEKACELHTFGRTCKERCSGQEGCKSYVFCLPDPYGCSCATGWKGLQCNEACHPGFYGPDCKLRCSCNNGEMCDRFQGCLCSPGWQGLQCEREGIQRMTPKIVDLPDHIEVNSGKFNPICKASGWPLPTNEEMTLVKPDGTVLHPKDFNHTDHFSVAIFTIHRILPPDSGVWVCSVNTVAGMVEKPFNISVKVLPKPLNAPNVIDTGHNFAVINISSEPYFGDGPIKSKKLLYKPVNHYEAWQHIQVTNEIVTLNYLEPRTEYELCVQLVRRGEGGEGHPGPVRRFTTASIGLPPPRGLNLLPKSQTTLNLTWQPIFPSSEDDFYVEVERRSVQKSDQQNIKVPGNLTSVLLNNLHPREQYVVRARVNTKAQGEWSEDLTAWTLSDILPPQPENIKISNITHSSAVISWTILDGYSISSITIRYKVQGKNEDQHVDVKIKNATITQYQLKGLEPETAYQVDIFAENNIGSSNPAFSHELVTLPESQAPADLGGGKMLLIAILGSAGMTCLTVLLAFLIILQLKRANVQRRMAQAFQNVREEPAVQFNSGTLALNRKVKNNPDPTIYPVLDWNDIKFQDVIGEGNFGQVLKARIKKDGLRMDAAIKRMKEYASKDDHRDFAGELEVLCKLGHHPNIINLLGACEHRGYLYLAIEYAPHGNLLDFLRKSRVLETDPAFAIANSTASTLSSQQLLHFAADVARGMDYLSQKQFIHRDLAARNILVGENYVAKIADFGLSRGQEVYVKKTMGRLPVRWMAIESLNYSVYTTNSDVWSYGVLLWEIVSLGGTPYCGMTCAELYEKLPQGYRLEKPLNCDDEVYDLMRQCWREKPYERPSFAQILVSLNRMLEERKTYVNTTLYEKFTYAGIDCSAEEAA
Method: as §1, §2, §3

CXCR4 = CXCR4 (Homo sapiens, UniProt P61073); assay: Chemokine (CXCL12-AF647) binding inhibition assay, Jurkat cells expressing CXCR4; conditions: CXCL12-AF647 25 ng/ml, read-out: IC50 CXCL-12 binding Jurkat
Chain of CXCR4 (P61073 whole entry): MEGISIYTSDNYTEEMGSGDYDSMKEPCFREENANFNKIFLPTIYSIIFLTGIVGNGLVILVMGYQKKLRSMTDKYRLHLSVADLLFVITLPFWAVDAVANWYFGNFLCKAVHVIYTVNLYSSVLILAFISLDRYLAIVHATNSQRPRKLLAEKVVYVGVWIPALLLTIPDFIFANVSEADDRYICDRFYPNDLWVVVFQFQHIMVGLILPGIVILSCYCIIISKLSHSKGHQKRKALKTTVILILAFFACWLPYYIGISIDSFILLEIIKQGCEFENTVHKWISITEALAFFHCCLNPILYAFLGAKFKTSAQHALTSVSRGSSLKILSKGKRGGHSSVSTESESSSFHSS
Summary of the method: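 Jurkat cells preincubated 15 min at RT with compounds in HBSS/20 mM HEPES/0.2% BSA, pH 7.4, then exposed to CXCL12-AF647 (25 ng/ml) for 30 min at RT; washed, fixed and read by flow cytometry (FL4). Inhibition calculated from MFI normalised to unlabeled and ligand-only controls.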

U-87 MG = assay: Glioblastoma multiforme cell proliferation assay (CellTiter Glo), U-87 MG; format: cell-based; conditions: Homo sapiens; for Emax: read-out: GBM-U87MG Cell Proliferation Emax %
Method: Inhibition of glioblastoma multiforme cell proliferation by compounds of the present invention was evaluated in U-87 MG (ATCC; Cat. No. HTB-14; Lot. No. 5018014) and T98G (ATCC; Cat. No. CRL-1690; Lot. No. 58267513) cell lines. These are adherent cell lines isolated from glioblastoma multiforme/malignant glioma, which express both CXCR4 and BTK (see Zhou et al. 2002 and Yue et al. 2017).
Cell viability was analyzed with the CellTiter Glo Cell assay kit ([…], Cat. No. G7573, Lot. No. 0000474103), according to the manufacturer's instruction.
U-87 MG and T98G cells were seeded onto 384-well opaque-walled clear bottom plates (Corning, Cat. No. 3765, Lot. No. 34319047) in EMEM (Invitrogen, Cat. No. 11095-080; Lot. No. 2276656) supplemented with 10% FBS (Invitrogen, Cat. No. 10099-141C, Lot. No. 2145169CP), at a seeding density of 1000 or 1200 cells per well, respectively, and then incubated in 5% CO2 at 37° C. overnight.
Compounds were prepared as stock solutions of 30 mM in DMSO (Sigma, Cat. No. 276855-1L. Lot. No. SHBL5610). Compounds were added to the cells, with 10 dose points in duplicates, in 3-fold dilution from a top concentration of 30 μM (final DMSO concentration […]), and incubated in 5% CO2 at 37° C. for 96 hr.
The 384-well plates were equilibrated at room temperature for approximately 30 min. 25 μl of CellTiter-Glo® Reagent was added to each well and mixed for 10 min on an orbital shaker to induce cell lysis. The 384-well plates were incubated at room temperature for 10 min to stabilize luminescent signal. Luminescence was detected on a PerkinElmer EnVision Multimode Plate Reader (measurement time 0.1s) as relative luminescence units (RLU).

CLK1 = target: T5, CLK1 (Homo sapiens, UniProt P49759); assay: PanQinase kinase panel: CLK1; format: biochemical
T5 construct: purchased Reaction Biology Europe GmbH
T5 sequence (P49759 whole entry): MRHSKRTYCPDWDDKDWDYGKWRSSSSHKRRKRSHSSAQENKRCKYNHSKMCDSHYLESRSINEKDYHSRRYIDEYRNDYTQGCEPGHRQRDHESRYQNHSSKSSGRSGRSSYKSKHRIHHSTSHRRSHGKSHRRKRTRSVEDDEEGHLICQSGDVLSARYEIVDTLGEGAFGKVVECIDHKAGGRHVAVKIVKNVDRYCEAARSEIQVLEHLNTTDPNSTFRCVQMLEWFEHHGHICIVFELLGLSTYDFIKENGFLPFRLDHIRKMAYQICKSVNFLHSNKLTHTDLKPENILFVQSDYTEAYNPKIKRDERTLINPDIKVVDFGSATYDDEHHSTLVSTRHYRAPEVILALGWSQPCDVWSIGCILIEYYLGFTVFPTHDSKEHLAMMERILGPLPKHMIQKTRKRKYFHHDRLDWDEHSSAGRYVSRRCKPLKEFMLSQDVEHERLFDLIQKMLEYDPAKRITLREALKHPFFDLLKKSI
Method: as §1, §2, §3

SIK2 = target: T6, SIK2 (Homo sapiens, UniProt Q9H0K1); assay: PanQinase kinase panel: SIK2; format: biochemical
T6 construct: purchased Reaction Biology Europe GmbH
T6 sequence (Q9H0K1 whole entry): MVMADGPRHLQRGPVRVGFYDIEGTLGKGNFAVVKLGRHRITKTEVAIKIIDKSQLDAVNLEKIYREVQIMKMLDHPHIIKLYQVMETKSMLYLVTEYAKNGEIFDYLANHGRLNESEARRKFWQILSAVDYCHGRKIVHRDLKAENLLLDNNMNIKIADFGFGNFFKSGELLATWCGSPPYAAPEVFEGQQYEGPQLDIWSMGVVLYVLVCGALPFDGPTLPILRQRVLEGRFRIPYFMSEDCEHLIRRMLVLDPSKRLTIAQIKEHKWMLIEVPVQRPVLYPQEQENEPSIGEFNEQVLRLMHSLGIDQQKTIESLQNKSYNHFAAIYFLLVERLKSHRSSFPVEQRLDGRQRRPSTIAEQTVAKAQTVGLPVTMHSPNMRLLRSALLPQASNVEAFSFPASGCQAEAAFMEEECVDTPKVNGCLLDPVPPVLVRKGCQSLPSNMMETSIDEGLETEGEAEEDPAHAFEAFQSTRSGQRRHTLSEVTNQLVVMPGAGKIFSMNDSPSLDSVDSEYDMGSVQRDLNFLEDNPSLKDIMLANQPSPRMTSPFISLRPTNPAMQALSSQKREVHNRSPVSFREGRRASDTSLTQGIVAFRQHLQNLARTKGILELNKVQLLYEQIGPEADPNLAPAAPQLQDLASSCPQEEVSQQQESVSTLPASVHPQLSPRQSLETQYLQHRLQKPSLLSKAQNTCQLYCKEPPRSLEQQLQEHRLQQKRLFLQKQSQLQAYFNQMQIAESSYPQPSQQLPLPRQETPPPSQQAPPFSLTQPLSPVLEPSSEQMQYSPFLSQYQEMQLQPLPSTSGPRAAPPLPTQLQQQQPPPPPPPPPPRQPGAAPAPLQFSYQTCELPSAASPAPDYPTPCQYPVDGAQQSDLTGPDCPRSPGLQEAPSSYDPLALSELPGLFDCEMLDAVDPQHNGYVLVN
Method: as §1, §2, §3

[1] = read-out: INHIBITORY EFFECT @ 1 uM: CLK1
[2] = read-out: INHIBITORY EFFECT @ 1 uM: SIK2
[3] = Table 6A, cell viability, 96 hr, read-out: U-87 MG IC50

T1 sequence (Q15303 26-1308): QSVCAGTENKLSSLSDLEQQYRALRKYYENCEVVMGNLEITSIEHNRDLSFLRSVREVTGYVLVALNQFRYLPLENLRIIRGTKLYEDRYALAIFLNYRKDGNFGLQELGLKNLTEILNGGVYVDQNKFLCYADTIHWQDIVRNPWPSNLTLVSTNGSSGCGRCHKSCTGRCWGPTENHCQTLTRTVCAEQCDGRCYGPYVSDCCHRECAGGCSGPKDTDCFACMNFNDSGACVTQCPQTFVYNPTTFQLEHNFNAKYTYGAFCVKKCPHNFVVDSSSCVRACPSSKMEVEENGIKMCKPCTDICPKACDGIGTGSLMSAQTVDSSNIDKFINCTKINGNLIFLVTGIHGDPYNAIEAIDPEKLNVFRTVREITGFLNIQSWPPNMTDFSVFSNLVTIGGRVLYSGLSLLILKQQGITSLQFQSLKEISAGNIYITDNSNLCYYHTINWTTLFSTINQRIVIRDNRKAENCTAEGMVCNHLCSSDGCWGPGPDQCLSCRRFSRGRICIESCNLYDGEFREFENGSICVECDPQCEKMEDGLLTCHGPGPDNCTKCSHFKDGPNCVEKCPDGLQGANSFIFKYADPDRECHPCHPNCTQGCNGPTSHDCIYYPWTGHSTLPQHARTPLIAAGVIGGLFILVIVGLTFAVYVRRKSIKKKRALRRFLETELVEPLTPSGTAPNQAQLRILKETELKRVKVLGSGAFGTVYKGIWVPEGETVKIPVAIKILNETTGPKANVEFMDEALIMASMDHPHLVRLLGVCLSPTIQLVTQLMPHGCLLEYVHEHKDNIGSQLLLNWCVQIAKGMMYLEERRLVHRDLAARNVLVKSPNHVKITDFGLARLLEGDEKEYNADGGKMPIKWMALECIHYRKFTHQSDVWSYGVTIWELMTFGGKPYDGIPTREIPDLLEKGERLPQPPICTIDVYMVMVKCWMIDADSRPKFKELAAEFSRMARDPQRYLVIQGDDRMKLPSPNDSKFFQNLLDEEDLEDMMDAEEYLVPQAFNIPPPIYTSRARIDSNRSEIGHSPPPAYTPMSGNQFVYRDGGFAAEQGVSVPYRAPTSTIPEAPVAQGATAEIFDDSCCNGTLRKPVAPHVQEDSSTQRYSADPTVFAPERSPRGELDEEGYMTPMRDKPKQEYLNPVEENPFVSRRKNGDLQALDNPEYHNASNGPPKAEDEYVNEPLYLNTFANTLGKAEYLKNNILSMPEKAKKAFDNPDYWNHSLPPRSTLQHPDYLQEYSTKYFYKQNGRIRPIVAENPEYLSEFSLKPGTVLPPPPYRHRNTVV

Row | SMILES | inhibition at 1 µM (ERBB4) [%] | inhibition at 1 µM (CK1epsilon) [%] | inhibition at 1 µM (ITK) [%] | inhibition at 1 µM (TIE2) [%] | IC50 (CXCR4) [nM] | Emax (U-87 MG; Table 6B) [%] | IC50 (U-87 MG; read-out: GBM-U87MG Cell Proliferation IC50 uM) [µM] | inhibition at 1 µM (CLK1; at 1 μM, read-out: inhibition of CLK1) [%] | inhibition at 1 µM (CLK1; [1]) [%] | inhibition at 1 µM (SIK2; at 1 μM, read-out: inhibition of SIK2) [%] | inhibition at 1 µM (SIK2; [2]) [%] | IC50 (U-87 MG; Table 6B, read-out: GBM-U87MG Cell Proliferation IC50) [µM] | IC50 (U-87 MG; [3]) [µM]
1 | O=C(c1ccc(Oc2ccccc2)cc1Cl)c1c[nH]c2ncnc(N[C@@H]3CC[C@@H](CO)OC3)c12 [ARQ-531, (2-chloro-4-phenoxyphenyl) (4-(((3R,6S)-6-(hydroxymethyl)tetrahydro-2H-pyran-3-yl)amino)-7H-pyrrolo[2,3-d]pyrimidin-5-yl) methanone] | 90 to 100 | 50 to 69 | 50 to 69 | < 50 |  |  |  |  |  |  |  |  | 
2 | Cc1cccnc1[C@H]1CCC[C@@H](c2ncccc2C)N1CCN1CCN(C(=O)c2ccc(-c3cc4c(-c5cccc(NC(=O)c6ccccc6)c5C)ncnc4[nH]3)cc2)CC1 [Compound I-10, N-(3-(6-(4-(4-(2-((2R,6S)-2,6-bis(3-methylpyridin-2-yl)piperidin-1-yl)ethyl)piperazine-1-carbonyl)phenyl)-7H-pyrrolo[2,3-d]pyrimidin-4-yl)-2-methylphenyl)benzamide] | < 50 | < 50 | < 50 | < 50 | 1 to 100 | 101 | 0.76 | 50 to 89 | 50 to 69 | 50 to 89 | 50 to 69 |  | 
3 | Cc1cc(-c2ccnc(Nc3cnn(CCN4[C@@H](c5ncccc5C)CCC[C@H]4c4ncccc4C)c3)n2)ccc1CNC(=O)N1CC(OC(C)C)C1 [Compound I-11] |  |  |  |  | 1 to 100 | 96 |  |  |  |  |  | 0.66 | 
4 | Cc1cccnc1[C@H]1CCC[C@@H](c2ncccc2C)N1CCCCNC(=O)[C@@H]1CC[C@@H](Nc2ncnc3[nH]cc(C(=O)c4ccc(Oc5ccccc5)cc4Cl)c23)CO1 [Compound I-16] |  |  |  |  | 1 to 100 |  |  |  |  |  |  |  | 1.3
5 | Cc1cccnc1[C@H]1CCC[C@@H](c2ncccc2C)N1CCCCNC(=O)OC[C@@H]1CC[C@@H](Nc2ncnc3[nH]cc(C(=O)c4ccc(Oc5ccccc5)cc4Cl)c23)CO1 [Compound I-18] |  |  |  |  | 100 to 1000 |  |  |  |  |  |  |  | 1.2
6 | COc1ccc(F)cc1C(=O)NCc1ccc(-c2nn([C@@H](C)C(F)(F)F)c(N)c2C(N)=O)cc1 [LOXO-305, pirtobrutinib] | 50 to 69 | < 50 | < 50 | < 50 |  |  |  |  | < 50 |  | < 50 |  | 
7 | C=CC(=O)N1CCC([C@@H]2CCNc3c(C(N)=O)c(-c4ccc(Oc5ccccc5)cc4)nn32)CC1 [Zanubrutinib, (7S)-2-(4-phenoxyphenyl)-7-(1-prop-2-enoylpiperidin-4-yl)-4,5,6,7-tetrahydropyrazolo[1,5-a]pyrimidine-3-carboxamide] |  | < 50 | < 50 | < 50 |  |  |  |  | < 50 |  | < 50 |  | 
